US20230085307A1, “PYRIDAZINONE COMPOUND AND HERBICIDE” (NISSAN CHEMICAL CORPORATION, priority 2019, published 2023)

Legend:
blackgrass [1] = test: Test Example 5: herbicidal effect by foliage application, plastic box (Table 20, symbol J); format: in vivo, blackgrass (Alopecurus myosuroides); conditions: foliage application, 320 g/ha, three weeks after application
Summary of the method: (§1)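 Plants were sown into sterilized diluvial soil under about 1.5 cm cover and kept in a greenhouse at 25° C. to 30° C. Fourteen days on, foliage received an even spray of the diluted emulsion. Herbicidal or crop effect was judged three weeks afterwards.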

persian speedwell [2] = test: Test Example 5: herbicidal effect by foliage application, plastic box (Table 20, symbol R); format: in vivo, Persian speedwell (Veronica persica); conditions: foliage application, 320 g/ha, three weeks after application
Summary of the method: as §1

wild oat [3] = test: Test Example 4: herbicidal effect by soil treatment (Table 19, symbol I); format: in vivo, wild oat (Avena fatua); conditions: amount of applied herbicide 320 g/ha
Summary of the method: (§2)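 Pre-emergence style soil spray: seeds under ~1.5 cm sterilized diluvial soil received a uniform coat of emulsion diluted to the predetermined herbicide amount. Greenhouse 25–30° C; readout at week three on previously defined criteria.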

oval-leafed pondweed = test: Test Example 1: herbicidal activity, application before weed generation under submerged conditions (Table 16, symbol C); format: in vivo, oval-leafed pondweed (Monochoria vaginalis)
Summary of the method: (§3)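 Alluvial soil was flooded to 4 cm depth, weed seeds were sown mixed and 2.5-leaf rice seedlings were transplanted. On sowing day, the compound's emulsion, diluted in water to a set dose, was applied to the water surface. Plants grew at 25–30 °C and were scored 0–5 after three weeks.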

Chinese sprangletop = test: Test Example 3: herbicidal effect by foliage application, Wagner pot (Table 18, symbol D); format: in vivo, chinese sprangletop (Leptochloa chinensis); conditions: 320 g/ha
Summary of the method: (§4)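 Plants were sown in alluvial soil held under 0.1–0.5 cm standing water and grown 14 days in a greenhouse at 25–30 °C. An emulsifiable formulation, water-diluted to the set dose, was then sprayed onto the foliage, and effects were scored three weeks later using previously defined criteria.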

Italian ryegrass [4] = test: Test Example 5: herbicidal effect by foliage application, plastic box (Table 20, symbol K); format: in vivo, Italian ryegrass (Lolium multiflorum); conditions: foliage application, 320 g/ha, three weeks after application
Summary of the method: as §1

southern crabgrass [5] = test: Test Example 5: herbicidal effect by foliage application, plastic box (Table 20, symbol F); format: in vivo, southern crabgrass (Digitaria ciliaris); conditions: foliage application, 320 g/ha, three weeks after application
Summary of the method: as §1

wild oat [6] = test: Test Example 5: herbicidal effect by foliage application, plastic box (Table 20, symbol I); format: in vivo, wild oat (Avena fatua); conditions: foliage application, 320 g/ha, three weeks after application
Summary of the method: as §1

persian speedwell [7] = test: Test Example 4: herbicidal effect by soil treatment (Table 19, symbol R); format: in vivo, Persian speedwell (Veronica persica); conditions: amount of applied herbicide 320 g/ha
Summary of the method: as §2

green foxtail [8] = test: Test Example 4: herbicidal effect by soil treatment (Table 19, symbol G); format: in vivo, green foxtail (Setaria viridis); conditions: amount of applied herbicide 320 g/ha
Summary of the method: as §2

Japanese bulrush = test: Test Example 1: herbicidal activity, application before weed generation under submerged conditions (Table 16, symbol B); format: in vivo, Japanese bulrush (Schoenoplectus juncoides)
Summary of the method: as §3

redroot pigweed [9] = test: Test Example 4: herbicidal effect by soil treatment (Table 19, symbol N); format: in vivo, redroot pigweed (Amaranthus retroflexus); conditions: amount of applied herbicide 320 g/ha
Summary of the method: as §2

windgrass = test: Test Example 5: herbicidal effect by foliage application, plastic box (Table 20, symbol L); format: in vivo, windgrass (Apera spica-venti); conditions: foliage application, 320 g/ha, three weeks after application
Summary of the method: as §1

green foxtail [10] = test: Test Example 5: herbicidal effect by foliage application, plastic box (Table 20, symbol G); format: in vivo, green foxtail (Setaria viridis); conditions: foliage application, 320 g/ha, three weeks after application
Summary of the method: as §1

lambsquarters [11] = test: Test Example 4: herbicidal effect by soil treatment (Table 19, symbol O); format: in vivo, lambsquarters (Chenopodium album); conditions: amount of applied herbicide 320 g/ha
Summary of the method: as §2

barnyard grass [12] = test: Test Example 5: herbicidal effect by foliage application, plastic box (Table 20, symbol H); format: in vivo, barnyard grass (Echinochloa crus-galli); conditions: foliage application, 320 g/ha, three weeks after application
Summary of the method: as §1

blackgrass [13] = test: Test Example 4: herbicidal effect by soil treatment (Table 19, symbol J); format: in vivo, blackgrass (Alopecurus myosuroides); conditions: amount of applied herbicide 320 g/ha
Summary of the method: as §2

Italian ryegrass [14] = test: Test Example 4: herbicidal effect by soil treatment (Table 19, symbol K); format: in vivo, Italian ryegrass (Lolium multiflorum); conditions: amount of applied herbicide 320 g/ha
Summary of the method: as §2

barnyard grass [15] = test: Test Example 3: herbicidal effect by foliage application, Wagner pot (Table 18, symbol H); format: in vivo, barnyard grass (Echinochloa crus-galli); conditions: 320 g/ha
Summary of the method: as §4

chickweed [16] = test: Test Example 4: herbicidal effect by soil treatment (Table 19, symbol P); format: in vivo, common chickweed (Stellaria media); conditions: amount of applied herbicide 320 g/ha
Summary of the method: as §2

lambsquarters [17] = test: Test Example 5: herbicidal effect by foliage application, plastic box (Table 20, symbol O); format: in vivo, lambsquarters (Chenopodium album); conditions: foliage application, 320 g/ha, three weeks after application
Summary of the method: as §1

velvetleaf [18] = test: Test Example 5: herbicidal effect by foliage application, plastic box (Table 20, symbol M); format: in vivo, velvetleaf (Abutilon theophrasti); conditions: foliage application, 320 g/ha, three weeks after application
Summary of the method: as §1

chickweed [19] = test: Test Example 5: herbicidal effect by foliage application, plastic box (Table 20, symbol P); format: in vivo, common chickweed (Stellaria media); conditions: foliage application, 320 g/ha, three weeks after application
Summary of the method: as §1

velvetleaf [20] = test: Test Example 4: herbicidal effect by soil treatment (Table 19, symbol M); format: in vivo, velvetleaf (Abutilon theophrasti); conditions: amount of applied herbicide 320 g/ha
Summary of the method: as §2

southern crabgrass [21] = test: Test Example 4: herbicidal effect by soil treatment (Table 19, symbol F); format: in vivo, southern crabgrass (Digitaria ciliaris); conditions: amount of applied herbicide 320 g/ha
Summary of the method: as §2

redroot pigweed [22] = test: Test Example 5: herbicidal effect by foliage application, plastic box (Table 20, symbol N); format: in vivo, redroot pigweed (Amaranthus retroflexus); conditions: foliage application, 320 g/ha, three weeks after application
Summary of the method: as §1

rice flat sedge = test: Test Example 3: herbicidal effect by foliage application, Wagner pot (Table 18, symbol E); format: in vivo, rice flat sedge (Cyperus iria); conditions: 320 g/ha
Summary of the method: as §4

barnyard grass [23] = test: Test Example 4: herbicidal effect by soil treatment (Table 19, symbol H); format: in vivo, barnyard grass (Echinochloa crus-galli); conditions: amount of applied herbicide 320 g/ha
Summary of the method: as §2

late watergrass = test: Test Example 1: herbicidal activity, application before weed generation under submerged conditions (Table 16, symbol A); format: in vivo, late watergrass (Echinochloa oryzicola)
Summary of the method: as §3

[24] = amount of applied herbicide 320 g/ha

## CCOc1ccccc1-c1sc2ccccc2c1-c1c(O)c(C)nn(C)c1=O [1-011]
Blackgrass [1]
  herbicidal effect grade, J: blackgrass: 5 (Herbicidal rate of 90% or more (almost completely withered))
Persian speedwell [2]
  herbicidal effect grade, R: persian speedwell: 5 (Herbicidal rate of 90% or more (almost completely withered))
Wild oat [3]
  herbicidal effect rating, I: wild oat: 2 (Herbicidal rate of 20% or more and less than 40%)
oval-leafed pondweed; 320 g/ha applied herbicide
  Herbicidal effect on C: oval-leafed pondweed (grade 0-5): 0 (Herbicidal rate of 5% or less (almost no effect))
Chinese sprangletop
  herbicidal effect on D (Chinese sprangletop), rating 0-5: 3 (Herbicidal rate of 40% or more and less than 70%)
Italian ryegrass [4]
  herbicidal effect grade, K: Italian ryegrass: 4 (Herbicidal rate of 70% or more and less than 90%)
Southern crabgrass [5]
  herbicidal effect grade, F: southern crabgrass: 5 (Herbicidal rate of 90% or more (almost completely withered))
Wild oat [6]
  herbicidal effect grade, I: wild oat: 4 (Herbicidal rate of 70% or more and less than 90%)
Persian speedwell [7]
  herbicidal effect rating, R: persian speedwell: 5 (Herbicidal rate of 90% or more (almost completely withered))
Green foxtail [8]
  herbicidal effect rating, G: green foxtail: 5 (Herbicidal rate of 90% or more (almost completely withered))
Japanese bulrush; 320 g/ha applied herbicide
  Herbicidal effect on B: Japanese bulrush (grade 0-5): 0 (Herbicidal rate of 5% or less (almost no effect))
Redroot pigweed [9]
  herbicidal effect rating, N: redroot pigweed: 4 (Herbicidal rate of 70% or more and less than 90%)
windgrass
  herbicidal effect grade, L: windgrass: 4 (Herbicidal rate of 70% or more and less than 90%)
Green foxtail [10]
  herbicidal effect grade, G: green foxtail: 5 (Herbicidal rate of 90% or more (almost completely withered))
Lambsquarters [11]
  herbicidal effect rating, O: lambsquarters: 4 (Herbicidal rate of 70% or more and less than 90%)
Barnyard grass [12]
  herbicidal effect grade, H: barnyard grass: 5 (Herbicidal rate of 90% or more (almost completely withered))
Blackgrass [13]
  herbicidal effect rating, J: blackgrass: 4 (Herbicidal rate of 70% or more and less than 90%)
Italian ryegrass [14]
  herbicidal effect rating, K: Italian ryegrass: 3 (Herbicidal rate of 40% or more and less than 70%)
Barnyard grass [15]
  herbicidal effect on H (barnyard grass), rating 0-5: 5 (Herbicidal rate of 90% or more (almost completely withered))
Chickweed [16]
  herbicidal effect rating, P: chickweed: 5 (Herbicidal rate of 90% or more (almost completely withered))
Lambsquarters [17]
  herbicidal effect grade, O: lambsquarters: 2 (Herbicidal rate of 20% or more and less than 40%)
Velvetleaf [18]
  herbicidal effect grade, M: velvetleaf: 3 (Herbicidal rate of 40% or more and less than 70%)
Chickweed [19]
  herbicidal effect grade, P: chickweed: 5 (Herbicidal rate of 90% or more (almost completely withered))
Velvetleaf [20]
  herbicidal effect rating, M: velvetleaf: 0 (Herbicidal rate of 5% or less (almost no effect))
Southern crabgrass [21]
  herbicidal effect rating, F: southern crabgrass: 3 (Herbicidal rate of 40% or more and less than 70%)
Redroot pigweed [22]
  herbicidal effect grade, N: redroot pigweed: 5 (Herbicidal rate of 90% or more (almost completely withered))
Rice flat sedge
  herbicidal effect on E (rice flat sedge), rating 0-5: 5 (Herbicidal rate of 90% or more (almost completely withered))
Barnyard grass [23]
  herbicidal effect rating, H: barnyard grass: 5 (Herbicidal rate of 90% or more (almost completely withered))
Late watergrass; 320 g/ha applied herbicide
  Herbicidal effect on A: late watergrass (grade 0-5): 5 (Herbicidal rate of 90% or more (almost completely withered))

## COc1cc2sc(-c3ccccc3OC)c(-c3c(O)c(C)nn(C)c3=O)c2cc1F [5-064]
Blackgrass [1]
  herbicidal effect on blackgrass (J): 4 (Herbicidal rate of 70% or more and less than 90%)
Persian speedwell [2]
  herbicidal effect on persian speedwell (R): 5 (Herbicidal rate of 90% or more (almost completely withered))
Wild oat [3]
  I: wild oat, herbicidal effect grade: 0 (Herbicidal rate of 5% or less (almost no effect))
oval-leafed pondweed; [24]
  Herbicidal effect, C: oval-leafed pondweed: 0 (Herbicidal rate of 5% or less (almost no effect))
Chinese sprangletop
  herbicidal effect on Chinese sprangletop (D): 2 (Herbicidal rate of 20% or more and less than 40%)
Italian ryegrass [4]
  herbicidal effect on Italian ryegrass (K): 3 (Herbicidal rate of 40% or more and less than 70%)
Southern crabgrass [5]
  herbicidal effect on southern crabgrass (F): 4 (Herbicidal rate of 70% or more and less than 90%)
Wild oat [6]
  herbicidal effect on wild oat (I): 4 (Herbicidal rate of 70% or more and less than 90%)
Persian speedwell [7]
  R: persian speedwell, herbicidal effect grade: 5 (Herbicidal rate of 90% or more (almost completely withered))
Green foxtail [8]
  G: green foxtail, herbicidal effect grade: 4 (Herbicidal rate of 70% or more and less than 90%)
Japanese bulrush; [24]
  Herbicidal effect, B: Japanese bulrush: 0 (Herbicidal rate of 5% or less (almost no effect))
Redroot pigweed [9]
  N: redroot pigweed, herbicidal effect grade: 4 (Herbicidal rate of 70% or more and less than 90%)
windgrass
  herbicidal effect on windgrass (L): 5 (Herbicidal rate of 90% or more (almost completely withered))
Green foxtail [10]
  herbicidal effect on green foxtail (G): 5 (Herbicidal rate of 90% or more (almost completely withered))
Lambsquarters [11]
  O: lambsquarters, herbicidal effect grade: 3 (Herbicidal rate of 40% or more and less than 70%)
Barnyard grass [12]
  herbicidal effect on barnyard grass (H): 4 (Herbicidal rate of 70% or more and less than 90%)
Blackgrass [13]
  J: blackgrass, herbicidal effect grade: 1 (Herbicidal rate of 5% or more and less than 20%)
Italian ryegrass [14]
  K: Italian ryegrass, herbicidal effect grade: 0 (Herbicidal rate of 5% or less (almost no effect))
Barnyard grass [15]
  herbicidal effect on barnyard grass (H): 5 (Herbicidal rate of 90% or more (almost completely withered))
Chickweed [16]
  P: chickweed, herbicidal effect grade: 4 (Herbicidal rate of 70% or more and less than 90%)
Lambsquarters [17]
  herbicidal effect on lambsquarters (O): 3 (Herbicidal rate of 40% or more and less than 70%)
Velvetleaf [18]
  herbicidal effect on velvetleaf (M): 4 (Herbicidal rate of 70% or more and less than 90%)
Velvetleaf [20]
  M: velvetleaf, herbicidal effect grade: 2 (Herbicidal rate of 20% or more and less than 40%)
Southern crabgrass [21]
  F: southern crabgrass, herbicidal effect grade: 3 (Herbicidal rate of 40% or more and less than 70%)
Rice flat sedge
  herbicidal effect on rice flat sedge (E): 5 (Herbicidal rate of 90% or more (almost completely withered))
Barnyard grass [23]
  H: barnyard grass, herbicidal effect grade: 4 (Herbicidal rate of 70% or more and less than 90%)
Late watergrass; [24]
  Herbicidal effect, A: late watergrass: 2 (Herbicidal rate of 20% or more and less than 40%)
